Test results as given in ChEMBL document CHEMBL2346553, “Synthesis and evaluation of non-dimeric HCV NS5A inhibitors” (Bioorg Med Chem Lett, 2013).

How the values were obtained:
Hepatitis C virus = test: microbe, parasite or virus in culture; details: genotype 1b, Huh-7
in vitro = details: human, HuH7 cells
PBMC = details: human
CCRF-CEM = details: human
Vero = details: chlorocebus sabaeus

EC50 (Hepatitis C virus) | EC90 (Hepatitis C virus) | SMILES | CC50 (in vitro) | CC50 (PBMC) | CC50 (CCRF-CEM) | CC50 (Vero)
> 1000 nM |  | COC(=O)N[C@H](C(=O)N1CCC[C@H]1c1ncc(-c2ccc(C)cc2)[nH]1)C(C)C | > 1 µM | > 100 µM | > 100 µM | > 100 µM
300 nM | 900 nM | COC(=O)N[C@H](C(=O)N1CCC[C@H]1c1ncc(-c2ccc(-c3ccccc3)cc2)[nH]1)C(C)C | > 1 µM | 14 µM | 70 µM | 18 µM
> 100 nM | > 1000 nM | COC(=O)N[C@@H](CC(C)C)C(=O)N1CCC[C@H]1c1ncc(-c2ccc(-c3ccccc3)cc2)[nH]1 | > 1 µM | 16 µM | 61 µM | 25 µM
> 1000 nM |  | C[C@H](NC(=O)OC(C)(C)C)C(=O)N1CCC[C@H]1c1ncc(-c2ccc(-c3ccccc3)cc2)[nH]1 | > 1 µM | 16 µM | 11 µM | 13 µM
> 1000 nM |  | C=CC[C@H](NC(C)=O)C(=O)N1CCC[C@H]1c1ncc(-c2ccc(-c3ccccc3)cc2)[nH]1 | > 1 µM | 100 µM | 73 µM | 21 µM
> 100 nM |  | COC(=O)N[C@H](C(=O)N1CCC[C@H]1c1ncc(-c2ccc(S(=O)(=O)c3ccccc3)cc2)[nH]1)C(C)C | > 1 µM | > 100 µM | > 100 µM | > 100 µM
> 100 nM |  | COC(=O)N[C@H](C(=O)N1CCC[C@H]1c1ncc(-c2ccc(-c3ccc(C#N)cc3)cc2)[nH]1)C(C)C | > 1 µM | > 100 µM | 98 µM | 33 µM
> 100 nM |  | COC(=O)N[C@H](C(=O)N1CCC[C@H]1c1ncc(-c2ccc(-c3ccc(C)cc3)cc2)[nH]1)C(C)C | > 1 µM | 90 µM | 16 µM | 14 µM
> 100 nM |  | COC(=O)N[C@H](C(=O)N1CCC[C@H]1c1ncc(-c2ccc(-c3ccc(OC)cc3)cc2)[nH]1)C(C)C | > 1 µM | 85 µM | 30 µM | 13 µM
21 nM | 76 nM | COC(=O)N[C@H](C(=O)N1CCC[C@H]1c1ncc(-c2ccc(-c3ccc(C(N)=O)cc3)cc2)[nH]1)C(C)C | > 1 µM | > 100 µM | > 100 µM | > 100 µM
> 100 nM |  | COC(=O)N[C@H](C(=O)N1CCC[C@H]1c1ncc(-c2ccc(-c3ccc(C(=O)OC)cc3)cc2)[nH]1)C(C)C | > 1 µM | 14 µM | 61 µM | 17 µM
> 100 nM |  | COC(=O)N[C@H](C(=O)N1CCC[C@H]1c1ncc(-c2ccc(-c3ccc(S(C)(=O)=O)cc3)cc2)[nH]1)C(C)C | > 1 µM | > 100 µM | 54 µM | 6 µM
> 100 nM |  | COC(=O)N[C@H](C(=O)N1CCC[C@H]1c1ncc(-c2ccc(-c3ccc(N=[N+]=[N-])cc3)cc2)[nH]1)C(C)C | > 1 µM | 37 µM | 11 µM | 11 µM
> 100 nM |  | COC(=O)N[C@H](C(=O)N1CCC[C@H]1c1nc(Cl)c(-c2ccc(-c3ccc(C(F)(F)F)cc3)cc2)[nH]1)C(C)C | > 1 µM | 11 µM | 10 µM | 10 µM
200 nM | 300 nM | COC(=O)N[C@H](C(=O)N1CCC[C@H]1c1ncc(-c2ccc(N)cc2)[nH]1)C(C)C | > 1 µM | > 100 µM | > 100 µM | > 100 µM
> 100 nM |  | COC(=O)Nc1ccc(-c2cnc([C@@H]3CCCN3C(=O)[C@@H](NC(=O)OC)C(C)C)[nH]2)cc1 | > 1 µM | > 100 µM | > 100 µM | > 100 µM

SMILES | EC50 (Hepatitis C virus) | EC90 (Hepatitis C virus) | CC50 (in vitro) | CC50 (PBMC) | CC50 (CCRF-CEM) | CC50 (Vero)
COC(=O)N[C@H](C(=O)N1CCC[C@H]1c1ncc(-c2ccc(-c3ccc(-c4cnc([C@@H]5CCCN5C(=O)[C@@H](NC(=O)OC)C(C)C)[nH]4)cc3)cc2)[nH]1)C(C)C | 0.01 nM | 0.03 nM |  |  |  | 
